Test results taken from PubChem BioAssay AID342 (DTP/NCI, 2004).
Where “and” joins values, the source holds several entries; their conditions need not be identical. Identical values can stand only once.

Test system: Swiss mice, Sarcoma 180 sc, mean tumor weight T/C
Assay: NCI In Vivo Anticancer Drug Screen. Data for tumor model Sarcoma 180 (subcutaneous) in Swiss mice
Settings: endpoint: mean tumor weight, higher = larger tumour
Procedure, shortened: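 Tumor-bearing mice, transplantable tumor; readout survival or tumor size; result = T/C, treated vs vehicle control.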

Nc1ccn(C2OC(CO)C(O)C2O)c(=O)n1 (centres undefined)
T/C (dose: 8.0 mg/kg/injection, schedule: Q01DX007 (ip), vehicle: saline): 47 % of control and 51 % of control | T/C (dose: 12.0 mg/kg/injection, schedule: Q01DX007 (ip), vehicle: saline): 61 % of control and 70 % of control | T/C (dose: 27.0 mg/kg/injection, schedule: Q01DX007 (ip), vehicle: saline): 51 % of control and 73 % of control | T/C (dose: 40.0 mg/kg/injection, schedule: Q01DX007 (ip), vehicle: saline): 37 % of control and 46 % of control | T/C (dose: 60.0 mg/kg/injection, schedule: Q01DX007 (ip), vehicle: saline): 13 % of control and 16 % of control | T/C (dose: 90.0 mg/kg/injection, schedule: Q01DX007 (ip), vehicle: saline): 10 % of control

CC(=O)[C@H]1[C@H](C)C[C@H]2[C@@H]3CCC4=CC(=O)CC[C@]4(C)[C@@]3(F)[C@@H](O)C[C@@]21C
T/C (dose: 3.0 mg/kg/injection, schedule: Q01DX007 (sc), vehicle: steriod suspending solution): 87 % of control | T/C (dose: 6.1 mg/kg/injection, schedule: Q01DX007 (sc), vehicle: steriod suspending solution): 63 % of control | T/C (dose: 12.5 mg/kg/injection, schedule: Q01DX007 (sc), vehicle: steriod suspending solution): 47 % of control | T/C (dose: 25.0 mg/kg/injection, schedule: Q01DX007 (sc), vehicle: steriod suspending solution): 44 % of control | T/C (dose: 47.0 mg/kg/injection, schedule: Q01DX007 (sc), vehicle: steriod suspending solution): 13 % of control | T/C (dose: 94.0 mg/kg/injection, schedule: Q01DX007 (sc), vehicle: steriod suspending solution): 26 % of control | T/C (dose: 187.5 mg/kg/injection, schedule: Q#A X014 (sc), vehicle: steriod suspending solution): 29 % of control and 31 % of control and 33 % of control | T/C (dose: 281.25 mg/kg/injection, schedule: Q#A X014 (sc), vehicle: steriod suspending solution): 22 % of control and 28 % of control and 42 % of control | T/C (dose: 500.0 mg/kg/injection, schedule: Q01DX007 (sc), vehicle: steriod suspending solution): 25 % of control | T/C (dose: 562.0 mg/kg/injection, schedule: Q01DX007 (sc), vehicle: steriod suspending solution): 36 % of control | T/C (dose: 600.0 mg/kg/injection, schedule: Q01DX007 (sc), vehicle: steriod suspending solution): 20 % of control | T/C (dose: 700.0 mg/kg/injection, schedule: Q01DX007 (sc), vehicle: steriod suspending solution): 28 % of control | T/C (dose: 800.0 mg/kg/injection, schedule: Q01DX007 (sc), vehicle: steriod suspending solution): 16 % of control | T/C (dose: 843.0 mg/kg/injection, schedule: Q01DX007 (sc), vehicle: steriod suspending solution): 21 % of control | T/C (dose: 1265.0 mg/kg/injection, schedule: Q01DX007 (sc), vehicle: steriod suspending solution): 29 % of control | T/C (dose: 1890.0 mg/kg/injection, schedule: Q01DX007 (sc), vehicle: steriod suspending solution): 24 % of control

S=P(N1CC1)(N1CC1)N1CC1
T/C (dose: 0.43 mg/kg/injection, schedule: Q01DX007 (ip), vehicle: carboxymethylcellulose (CMC)): 91 % of control | T/C (dose: 0.87 mg/kg/injection, schedule: Q01DX007 (ip), vehicle: carboxymethylcellulose (CMC)): 85 % of control | T/C (dose: 1.75 mg/kg/injection, schedule: Q01DX007 (ip), vehicle: carboxymethylcellulose (CMC)): 104 % of control | T/C (dose: 3.5 mg/kg/injection, schedule: Q01DX007 (ip), vehicle: carboxymethylcellulose (CMC)): 65 % of control | T/C (dose: 218.5 mg/kg/injection, schedule: Q#A X014 (ip), vehicle: carboxymethylcellulose (CMC)): 108 % of control | T/C (dose: 437.5 mg/kg/injection, schedule: Q#A X014 (ip), vehicle: carboxymethylcellulose (CMC)): 110 % of control | T/C (dose: 875.0 mg/kg/injection, schedule: Q#A X014 (ip), vehicle: carboxymethylcellulose (CMC)): 46 % of control

CC(C)CC(C)(C[N+](=O)[O-])C[N+](=O)[O-]
T/C (dose: 4.0 mg/kg/injection, schedule: Q01DX007 (ip), vehicle: saline): 93 % of control

N#[N+]c1nc[nH]c1C(N)=O
T/C (dose: 0.62 mg/kg/injection, schedule: Q#A X014 (ip), vehicle: methylcellulose (MC)): 61 % of control | T/C (dose: 1.25 mg/kg/injection, schedule: Q#A X014 (ip), vehicle: methylcellulose (MC)): 53 % of control | T/C (dose: 2.5 mg/kg/injection, schedule: Q#A X014 (ip), vehicle: methylcellulose (MC)): 55 % of control

CN(/N=N/c1nc[nH]c1C(N)=O)c1ccccc1
T/C (dose: 15.5 mg/kg/injection, schedule: Q#A X014 (ip), vehicle: methylcellulose (MC)): 89 % of control | T/C (dose: 31.0 mg/kg/injection, schedule: Q#A X014 (ip), vehicle: methylcellulose (MC)): 99 % of control | T/C (dose: 62.5 mg/kg/injection, schedule: Q#A X014 (ip), vehicle: methylcellulose (MC)): 46 % of control

CCN(CC)CCNc1ccc(C)c2sc3ccccc3c(=O)c12
T/C (dose: 4.87 mg/kg/injection, schedule: Q#A X014 (ip), vehicle: carboxymethylcellulose (CMC)): 120 % of control | T/C (dose: 7.5 mg/kg/injection, schedule: Q01DX007 (ip), vehicle: carboxymethylcellulose (CMC)): 93 % of control | T/C (dose: 9.75 mg/kg/injection, schedule: Q01DX007 (ip), vehicle: carboxymethylcellulose (CMC)): 60 % of control | T/C (dose: 9.75 mg/kg/injection, schedule: Q#A X014 (ip), vehicle: carboxymethylcellulose (CMC)): 77 % of control | T/C (dose: 12.5 mg/kg/injection, schedule: Q#A X014 (ip), vehicle: carboxymethylcellulose (CMC)): 85 % of control | T/C (dose: 15.0 mg/kg/injection, schedule: Q01DX007 (ip), vehicle: carboxymethylcellulose (CMC)): 101 % of control | T/C (dose: 19.5 mg/kg/injection, schedule: Q01DX007 (ip), vehicle: carboxymethylcellulose (CMC)): 72 % of control | T/C (dose: 19.5 mg/kg/injection, schedule: Q#A X014 (ip), vehicle: carboxymethylcellulose (CMC)): 75 % of control | T/C (dose: 25.0 mg/kg/injection, schedule: Q#A X014 (ip), vehicle: carboxymethylcellulose (CMC)): 64 % of control | T/C (dose: 30.0 mg/kg/injection, schedule: Q01DX007 (ip), vehicle: carboxymethylcellulose (CMC)): 106 % of control | T/C (dose: 31.2 mg/kg/injection, schedule: Q01DX007 (ip), vehicle: carboxymethylcellulose (CMC)): 117 % of control | T/C (dose: 39.0 mg/kg/injection, schedule: Q#A X014 (ip), vehicle: carboxymethylcellulose (CMC)): 32 % of control | T/C (dose: 50.0 mg/kg/injection, schedule: Q#A X014 (ip), vehicle: carboxymethylcellulose (CMC)): 35 % of control | T/C (dose: 52.0 mg/kg/injection, schedule: Q01DX007 (ip), vehicle: carboxymethylcellulose (CMC)): 82 % of control | T/C (dose: 60.0 mg/kg/injection, schedule: Q01DX007 (ip), vehicle: carboxymethylcellulose (CMC)): 55 % of control

O=C(O)CCCc1ccc(N(CCCl)CCCl)cc1
T/C (dose: 1.93 mg/kg/injection, schedule: Q01DX007 (ip), vehicle: carboxymethylcellulose (CMC)): 49 % of control | T/C (dose: 2.62 mg/kg/injection, schedule: Q#A X014 (ip), vehicle: carboxymethylcellulose (CMC)): 99 % of control | T/C (dose: 3.01 mg/kg/injection, schedule: Q01DX007 (ip), vehicle: carboxymethylcellulose (CMC)): 88 % of control | T/C (dose: 3.85 mg/kg/injection, schedule: Q01DX007 (ip), vehicle: carboxymethylcellulose (CMC)): 41 % of control | T/C (dose: 5.25 mg/kg/injection, schedule: Q#A X014 (ip), vehicle: carboxymethylcellulose (CMC)): 69 % of control | T/C (dose: 5.6 mg/kg/injection, schedule: Q01DX007 (ip), vehicle: carboxymethylcellulose (CMC)): 71 % of control | T/C (dose: 6.03 mg/kg/injection, schedule: Q01DX007 (ip), vehicle: carboxymethylcellulose (CMC)): 86 % of control | T/C (dose: 7.0 mg/kg/injection, schedule: Q01DX007 (ip), vehicle: carboxymethylcellulose (CMC)): 52 % of control and 57 % of control | T/C (dose: 7.7 mg/kg/injection, schedule: Q01DX007 (ip), vehicle: carboxymethylcellulose (CMC)): 37 % of control | T/C (dose: 9.33 mg/kg/injection, schedule: Q01DX007 (ip), vehicle: carboxymethylcellulose (CMC)): 63 % of control | T/C (dose: 10.5 mg/kg/injection, schedule: Q01DX007 (ip), vehicle: carboxymethylcellulose (CMC)): 60 % of control | T/C (dose: 10.5 mg/kg/injection, schedule: Q#A X014 (ip), vehicle: carboxymethylcellulose (CMC)): 18 % of control | T/C (dose: 12.05 mg/kg/injection, schedule: Q01DX007 (ip), vehicle: carboxymethylcellulose (CMC)): 58 % of control | T/C (dose: 14.0 mg/kg/injection, schedule: Q01DX007 (ip), vehicle: carboxymethylcellulose (CMC)): 23 % of control and 48 % of control

NC(=O)c1n[se]nc1N
T/C (dose: 1.0 mg/kg/injection, schedule: Q01DX007 (ip), vehicle: carboxymethylcellulose (CMC)): 65 % of control | T/C (dose: 2.0 mg/kg/injection, schedule: Q01DX007 (ip), vehicle: carboxymethylcellulose (CMC)): 99 % of control

C[C@@H]1C[C@H]2[C@@H]3CCC4=CC(=O)C=C[C@]4(C)[C@@]3(F)[C@@H](O)C[C@]2(C)[C@@]1(O)C(=O)CO
T/C (dose: 7.0 mg/kg/injection, schedule: Q01DX007 (sc), vehicle: steriod suspending solution): 50 % of control and 56 % of control | T/C (dose: 11.0 mg/kg/injection, schedule: Q01DX007 (sc), vehicle: steriod suspending solution): 38 % of control and 39 % of control | T/C (dose: 16.0 mg/kg/injection, schedule: Q01DX007 (sc), vehicle: steriod suspending solution): 35 % of control and 36 % of control and 47 % of control | T/C (dose: 24.0 mg/kg/injection, schedule: Q01DX007 (sc), vehicle: steriod suspending solution): 30 % of control and 35 % of control and 40 % of control

[O]=[V]
T/C (dose: 7.5 mg/kg/injection, schedule: Q01DX007 (sc), vehicle: olive oil, sesame oil, peanut oil): 94 % of control | T/C (dose: 15.0 mg/kg/injection, schedule: Q01DX007 (sc), vehicle: olive oil, sesame oil, peanut oil): 89 % of control | T/C (dose: 30.0 mg/kg/injection, schedule: Q01DX007 (sc), vehicle: olive oil, sesame oil, peanut oil): 100 % of control
